Assay results published in ChEMBL document CHEMBL1201862, “PubChem BioAssay data set” (2004).
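Tested at 5 concentrations; 48 h exposure; 96-well plates; endpoints linearly interpolated, else capped at highest concentration. GI50: concentration for 50% inhibition of growth.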 Activity calls are given as the source filed them. No stated cut-off is given here; in the data, active = GI50 up to about 1.1 µM and inactive = higher.

Tests used:
Test in all cases: DTP human tumour cell line panel, 48 h
SNB-19 = system: SNB-19
SK-MEL-5 = system: SK-MEL-5
NCI-H460 = system: NCI-H460
HCT-116 = system: HCT-116
HL-60 = system: HL-60
SK-OV-3 = system: SK-OV-3
OVCAR-8 = system: OVCAR-8
HT-29 = system: HT-29
SK-MEL-28 = system: SK-MEL-28
U-251 = system: U-251
CAKI-1 = system: CAKI-1
OVCAR-3 = system: OVCAR-3
LOX IMVI = system: LOX IMVI
ACHN = system: ACHN
SW-620 = system: SW-620
M19-MEL = system: M19-MEL
KM-20L2 = system: KM-20L2
RPMI-8226 = system: RPMI-8226
SNB-78 = system: SNB-78
SR = system: SR

Measured: GI50

COC(=O)C1=C(OC(=O)/C(=C/c2ccc(Cl)cc2)c2ccc(Cl)cc2)C(C(=O)OC)[C@]2(O)[C@@H](C(=O)OC)[C@H]1C[C@@H](c1ccccc1)[C@@H]2C(=O)OC (stereo partly specified)
inactive: SNB-19 59 µM | SK-MEL-5 > 100 µM | NCI-H460 > 100 µM | HCT-116 > 100 µM | HL-60 > 100 µM | SK-OV-3 64 µM | OVCAR-8 > 100 µM | HT-29 > 100 µM | SK-MEL-28 > 100 µM | U-251 26.5 µM | CAKI-1 > 100 µM | OVCAR-3 27 µM | LOX IMVI > 100 µM | ACHN > 100 µM | SW-620 > 100 µM

COc1cc(/C=C(\C#N)C(N)=O)cc(Br)c1O
inactive: SNB-19 > 100 µM | SK-MEL-5 > 100 µM | M19-MEL > 100 µM | NCI-H460 > 100 µM | HCT-116 > 100 µM | KM-20L2 > 100 µM | SK-OV-3 > 100 µM | OVCAR-8 > 100 µM | HT-29 > 100 µM | SK-MEL-28 > 100 µM | U-251 > 100 µM | RPMI-8226 70 µM | CAKI-1 > 100 µM | SNB-78 > 100 µM | OVCAR-3 > 100 µM | LOX IMVI 29.7 µM | SW-620 > 100 µM

CCCCN1C=CN2c3nc4cc(C)c(C)cc4n3C(C(=O)OC)=C(C(=O)OC)C12 (stereo unspecified)
inactive: SNB-19 > 100 µM | SR > 100 µM | SK-MEL-5 > 100 µM | M19-MEL > 100 µM | NCI-H460 > 100 µM | HCT-116 > 100 µM | HL-60 > 100 µM | KM-20L2 > 100 µM | SK-OV-3 > 100 µM | OVCAR-8 > 100 µM | HT-29 > 100 µM | U-251 > 100 µM | RPMI-8226 > 100 µM | CAKI-1 > 100 µM | SNB-78 > 100 µM | OVCAR-3 > 100 µM | LOX IMVI > 100 µM | ACHN > 100 µM | SW-620 > 100 µM

CC1SC(c2ccccc2)N(Nc2c3ccccc3nc3ccccc23)C1=O (stereo unspecified)
inactive: SNB-19 > 100 µM | SR 42.6 µM | SK-MEL-5 38.4 µM | M19-MEL > 100 µM | NCI-H460 > 100 µM | HCT-116 75.3 µM | KM-20L2 > 100 µM | SK-OV-3 28.4 µM | OVCAR-8 74.1 µM | HT-29 > 100 µM | SK-MEL-28 > 100 µM | U-251 > 100 µM | RPMI-8226 58.7 µM | CAKI-1 46.9 µM | SNB-78 > 100 µM | OVCAR-3 > 100 µM | LOX IMVI 89.1 µM | ACHN > 100 µM | SW-620 > 100 µM

C/C=C/c1cc(=O)c([C@@H]2OC(=O)c3cc(OC)cc(OC)c32)co1 [VERMISTATIN]
inactive: SNB-19 > 100 µM | SR 27.6 µM | SK-MEL-5 50.5 µM | M19-MEL 35.1 µM | NCI-H460 58.3 µM | HCT-116 23.7 µM | HL-60 27.4 µM | KM-20L2 67.5 µM | OVCAR-8 46.8 µM | HT-29 34.6 µM | SK-MEL-28 25.3 µM | RPMI-8226 35.4 µM | CAKI-1 42.1 µM | OVCAR-3 20.7 µM | ACHN 45.3 µM | SW-620 55.5 µM
